pIC50: −log10 of the molar value.
Legend:
OVCAR3 = assay: In vitro cell culture growth assay (MTS), OVCAR3; format: cell-based, Human; conditions: ovarian line, 3 days after drug treatment
Description: (§1) Human tumor cell lines (Table 3) include prostate lines LNCap and PC3MM2, breast lines MDA468, MCF7, renal line HTB44 (A498), colon line HCT116, and ovarian line OVCAR3. Cells were plated in 96-well culture plates.
(§2) One day following plating, the following conjugates (inhibitors) were added to cells: • Compound A 42,17′-linked wortmannin-adipate-rapamycin conjugate, diethylamine adduct • Compound B 42,17′-linked wortmannin-adipate-rapamycin conjugate. • Compound C 42,17′-linked wortmannin-succinate-rapamycin conjugate, N,N,N′-trimethyl 1,3-propanediamine adduct • Compound D 42,17′-linked wortmannin-adipate-rapamycin conjugate, diallylamine adduct • Compound E 42,17′-linked wortmannin-adipate-rapamycin conjugate, N,N,N′-trimethyl 1,3-propanediamine adduct • Compound F 42,17′-linked wortmannin-suberate-rapamycin conjugate, N,N,N′-trimethyl 1,3-propanediamine adduct.
(§3) Three days after drug treatment, viable cell densities were determined by metabolic conversion (by viable cells) of the MTS dye (3-(4,5-dimethylthiazol-2-yl)-5-(3 carboxymethoxyphenyl)-2-(4-sulfophenyl)-2H-tetrazolium, inner salt), a well established cell proliferation assay. The assays were performed using an assay kit purchased from Promega Corp. (Madison, Wis.) following the protocol supplied with the kit. The MTS assay results were read in a 96-well plate reader by measuring absorbance at 490 nm. The effect of each treatment was calculated as percent of control growth relative to the vehicle-treated cells grown in the same culture plate. The drug concentration that conferred 50% inhibition of growth was determined as IC50 (μg/mL). See, Table 3.

PC3MM2 = assay: In vitro cell culture growth assay (MTS), PC3MM2; format: cell-based, Human; conditions: prostate line, 3 days after drug treatment
Description: as §1, §2, §3

HCT116 = assay: In vitro cell culture growth assay (MTS), HCT116; format: cell-based, Human; conditions: colon line, 3 days after drug treatment
Description: as §1, §2, §3

MDA468 = assay: In vitro cell culture growth assay (MTS), MDA468; format: cell-based, Human; conditions: breast line, 3 days after drug treatment
Description: as §1, §2, §3

LNCap = assay: In vitro cell culture growth assay (MTS), LNCap; format: cell-based, Human; conditions: prostate line, 3 days after drug treatment
Description: as §1, §2, §3

HTB44 (A498) = assay: In vitro cell culture growth assay (MTS), HTB44 (A498); format: cell-based, Human; conditions: renal line, 3 days after drug treatment
Description: as §1, §2, §3

MCF7 = assay: In vitro cell culture growth assay (MTS), MCF7; format: cell-based, Human; conditions: breast line, 3 days after drug treatment
Description: as §1, §2, §3

C3H mammary model = conditions: cited from earlier work
PI3K = conditions: cited from earlier work
U87MG Glioma Xenografts = assay: Xenograft tumor efficacy study, U87MG glioma in nude mice; format: in vivo; conditions: for Tumor Volume mean, Day 14 / S/T (D14), Survival over total in group / t/c (Treated over control) tumor volume, Day 14: Day 14
Description: Female nude mice at 10 weeks of age were inoculated subcutaneously on the flank with 200 μL U87MG (human gliobastoma) tumor cell suspension. U87MG cells were suspended in full growth media and were implanted at 10 million cells per mouse. Mice were staged when tumors reached approximately 200 mm^3 in sizes. Tumor bearing mice at staging (day 0) were randomized into treatment groups (n=10). […]
The growth of tumors was monitored twice a week for the duration of the experiment. Tumor size was measured using sliding vernier calipers, and the tumor mass was calculated using the formula (length×Width^2)/2.
The experimental methods for drug preparation, dosing route, regimen, etc (listed in the Table 4) were similar to the experiments presented in the Figures. The data in Table 4 and the Figures were derived from multiple and completely different experiments. Within Table 4, the data contained separate experiments.

Compound | IC50 inhibition of tumor cell growth, OVCAR3 (OVCAR3) [µg/mL] | IC50 inhibition of tumor cell growth, PC2MM2 (PC3MM2) [µg/mL] | IC50 inhibition of tumor cell growth, HCT116 (HCT116) [µg/mL] | IC50 inhibition of tumor cell growth, MDA468 (MDA468) [µg/mL] | IC50 inhibition of tumor cell growth, LNCap (LNCap) [µg/mL] | IC50 inhibition of tumor cell growth, HTB44 (HTB44 (A498)) [µg/mL] | IC50 inhibition of tumor cell growth, MCF7 (MCF7) [µg/mL] | Tumor Volume mean, Day 0 (U87MG Glioma Xenografts; 3 mg/kg IV on day 0 and day 7) [mm^3] | Tumor Volume mean, Day 3 (U87MG Glioma Xenografts; 3 mg/kg IV on day 0 and day 7) [mm^3] | Tumor Volume mean, Day 7 (U87MG Glioma Xenografts; 3 mg/kg IV on day 0 and day 7) [mm^3] | Tumor Volume mean, Day 10 (U87MG Glioma Xenografts; 3 mg/kg IV on day 0 and day 7) [mm^3] | Tumor Volume mean, Day 14 (U87MG Glioma Xenografts; 3 mg/kg IV on day 0 and day 7) [mm^3] | t/c (Treated over control) tumor volume, Day 0 (U87MG Glioma Xenografts; 3 mg/kg) | t/c (Treated over control) tumor volume, Day 3 (U87MG Glioma Xenografts; 3 mg/kg) | t/c (Treated over control) tumor volume, Day 7 (U87MG Glioma Xenografts; 3 mg/kg) | t/c (Treated over control) tumor volume, Day 10 (U87MG Glioma Xenografts; 3 mg/kg) | S/T (D14), Survival over total in group (U87MG Glioma Xenografts; 3 mg/kg) | t/c (Treated over control) tumor volume, Day 14 (U87MG Glioma Xenografts; 3 mg/kg) | Tumor Volume mean, Day 0 (U87MG Glioma Xenografts; 15 mg/kg IV on day 0 and day 7) [mm^3] | Tumor Volume mean, Day 3 (U87MG Glioma Xenografts; 15 mg/kg IV on day 0 and day 7) [mm^3] | other results
42,17′-linked wortmannin-adipate-rapamycin conjugate, diethylamine adduct [Compound A] | 8.50 | 2.55 | >30 | 0.38 | 0.04 | 0.57 | 0.29 |  |  |  |  |  |  |  |  |  |  |  |  |  | 
COCC1OC(=O)c2coc3c2C1(C)C1=C(C3=O)C2CCC(O)C2(C)CC1OC(C)=O (stereo not drawn) [17β-Hydroxywortmannin] |  |  |  |  |  |  |  |  |  |  |  |  |  |  |  |  |  |  |  |  | anti-tumor activity in the C3H mammary model (C3H mammary model; dose of 0.5 mg/kg): no inhibition; toxicity in the C3H mammary model (C3H mammary model; dose of 1.0 mg/kg): toxicity; increase in activity relative to wortmannin (PI3K; PI3K): 10 fold; pIC50 (PI3K): 9.30
42,17′-linked wortmannin-adipate-rapamycin conjugate [Compound B] | 4.70 | 1.10 | 16.50 | 2.05 | 0.80 | 3.50 | 1.00 |  |  |  |  |  |  |  |  |  |  |  |  |  | 
42,17′-linked wortmannin-succinate-rapamycin conjugate, N,N,N′-trimethyl 1,3-propanediamine adduct [Compound C] | 1.13 | 0.50 | 4.20 | 1.20 | 0.20 | 2.00 | 0.38 | 193.0 | 209.6 | 437.2 | 691.8 | 1091.7 | 1.04 | 0.76 | 0.88 | 0.66 | 10/10 | 0.49 | 183.6 | 193.5 | Tumor Volume mean, Day 7 (U87MG Glioma Xenografts; 15 mg/kg IV on day 0 and day 7): 246.7 mm^3; Tumor Volume mean, Day 10 (U87MG Glioma Xenografts; 15 mg/kg IV on day 0 and day 7): 294.2 mm^3; t/c (Treated over control) tumor volume, Day 0 (U87MG Glioma Xenografts; 15 mg/kg): 0.99; t/c (Treated over control) tumor volume, Day 3 (U87MG Glioma Xenografts; 15 mg/kg): 0.70; t/c (Treated over control) tumor volume, Day 7 (U87MG Glioma Xenografts; 15 mg/kg): 0.49; t/c (Treated over control) tumor volume, Day 10 (U87MG Glioma Xenografts; 15 mg/kg): 0.28; S/T (D14), Survival over total in group (U87MG Glioma Xenografts; 15 mg/kg): 10/10; t/c (Treated over control) tumor volume, Day 14 (U87MG Glioma Xenografts; 15 mg/kg): 0.11; antitumor activity (FIG. 2) (U87MG Glioma Xenografts; i.v. 1× weekly for 2 rounds at 1.5 mg/kg): improved inhibition of tumor cell growth; antitumor activity (FIG. 2) (U87MG Glioma Xenografts; i.v. 1× weekly for 2 rounds at 4.5 mg/kg): some improvement; antitumor activity (FIG. 2) (U87MG Glioma Xenografts; i.v. 1× weekly for 8 rounds at 15 mg/kg): Significant improvement
42,17′-linked wortmannin-adipate-rapamycin conjugate, diallylamine adduct [Compound D] | 1.75 | 0.43 | 5.00 | 1.15 | 0.21 | 4.10 | 0.66 | 185.1 | 244.5 | 435.4 | 636.4 | 1050.1 | 1.00 | 0.89 | 0.87 | 0.60 | 10/10 | 0.47 | 181.5 | 186.0 | Tumor Volume mean, Day 10 (U87MG Glioma Xenografts; 15 mg/kg IV on day 0 and day 7): 242.5 mm^3; Tumor Volume mean, Day 14 (U87MG Glioma Xenografts; 15 mg/kg IV on day 0 and day 7): 254.6 mm^3; t/c (Treated over control) tumor volume, Day 0 (U87MG Glioma Xenografts; 15 mg/kg): 0.98; t/c (Treated over control) tumor volume, Day 3 (U87MG Glioma Xenografts; 15 mg/kg): 0.68; t/c (Treated over control) tumor volume, Day 10 (U87MG Glioma Xenografts; 15 mg/kg): 0.23; S/T (D14), Survival over total in group (U87MG Glioma Xenografts; 15 mg/kg): 10/10; t/c (Treated over control) tumor volume, Day 14 (U87MG Glioma Xenografts; 15 mg/kg): 0.11
42,17′-linked wortmannin-adipate-rapamycin conjugate, N,N,N′-trimethyl 1,3-propanediamine adduct [Compound E] | 3.15 | 1.95 | 7.50 | 1.35 | 0.25 | 5.00 | 1.00 | 182.7 | 214.7 | 340.2 | 471.6 | 595.9 | 0.99 | 0.78 | 0.68 | 0.45 | 10/10 | 0.27 | 187.5 | 168.0 | Tumor Volume mean, Day 7 (U87MG Glioma Xenografts; 15 mg/kg IV on day 0 and day 7): 181.6 mm^3; Tumor Volume mean, Day 10 (U87MG Glioma Xenografts; 15 mg/kg IV on day 0 and day 7): 165.8 mm^3; Tumor Volume mean, Day 14 (U87MG Glioma Xenografts; 15 mg/kg IV on day 0 and day 7): 162.8 mm^3; t/c (Treated over control) tumor volume, Day 0 (U87MG Glioma Xenografts; 15 mg/kg): 1.01; t/c (Treated over control) tumor volume, Day 3 (U87MG Glioma Xenografts; 15 mg/kg): 0.61; t/c (Treated over control) tumor volume, Day 7 (U87MG Glioma Xenografts; 15 mg/kg): 0.36; t/c (Treated over control) tumor volume, Day 10 (U87MG Glioma Xenografts; 15 mg/kg): 0.16; S/T (D14), Survival over total in group (U87MG Glioma Xenografts; 15 mg/kg): 10/10; t/c (Treated over control) tumor volume, Day 14 (U87MG Glioma Xenografts; 15 mg/kg): 0.07; efficacy in multi-cycle treatment (FIG. 2) (U87MG Glioma Xenografts; multi-cycle treatment): sustained efficacy
